Results as given in ChEMBL document CHEMBL3045843, “Binding of Nicotinoids and the Related Compounds to the Insect Nicotinic Acetyicholine Receptor” (J Pestic Sci, 1992).

Key:
Musca domestica = experiment: Insecticidal activity against Musca domestica (house fly) assessed as mortality relative to nicotine; assay type: functional
[1] = Disocciation constant, pKa of the compound at 37 degC; assay type: physicochemical
Acetylcholinesterase = Acetylcholinesterase (Musca domestica, UniProt Q7YWJ9); experiment: Inhibition of Musca domestica (house fly) acetylcholinesterase
Sequence of Acetylcholinesterase (Q7YWJ9 whole entry): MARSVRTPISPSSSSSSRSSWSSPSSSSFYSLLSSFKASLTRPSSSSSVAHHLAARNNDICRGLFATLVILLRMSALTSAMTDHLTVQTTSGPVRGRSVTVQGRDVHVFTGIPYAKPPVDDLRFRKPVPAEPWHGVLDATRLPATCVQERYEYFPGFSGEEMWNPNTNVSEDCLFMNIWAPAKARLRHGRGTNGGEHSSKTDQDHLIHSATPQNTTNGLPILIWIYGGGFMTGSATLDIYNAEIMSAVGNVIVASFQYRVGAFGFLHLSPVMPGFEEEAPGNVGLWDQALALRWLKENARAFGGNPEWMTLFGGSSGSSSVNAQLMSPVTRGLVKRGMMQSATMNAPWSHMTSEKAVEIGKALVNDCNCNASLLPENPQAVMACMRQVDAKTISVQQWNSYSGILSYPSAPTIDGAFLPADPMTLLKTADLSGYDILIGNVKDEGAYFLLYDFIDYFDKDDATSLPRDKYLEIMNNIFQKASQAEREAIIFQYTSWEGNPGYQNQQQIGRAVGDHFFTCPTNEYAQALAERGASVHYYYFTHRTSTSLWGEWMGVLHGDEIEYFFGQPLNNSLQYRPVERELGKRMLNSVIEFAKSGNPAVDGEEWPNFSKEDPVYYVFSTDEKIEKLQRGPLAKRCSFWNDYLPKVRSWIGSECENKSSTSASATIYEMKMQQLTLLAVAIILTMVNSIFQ

[2] = Disocciation constant, pKa of the compound at 25 degC; assay type: physicochemical
[3] = molecular target: T1, Nicotinic acetylcholine receptor alpha 5 subunit (Musca domestica, UniProt A9XFY4); experiment: Displacement of [3H]alpha-bungarotoxin from nAChR in Musca domestica (house fly) head membrane after 60 min by scintillation counting
T1 sequence (A9XFY4 whole entry): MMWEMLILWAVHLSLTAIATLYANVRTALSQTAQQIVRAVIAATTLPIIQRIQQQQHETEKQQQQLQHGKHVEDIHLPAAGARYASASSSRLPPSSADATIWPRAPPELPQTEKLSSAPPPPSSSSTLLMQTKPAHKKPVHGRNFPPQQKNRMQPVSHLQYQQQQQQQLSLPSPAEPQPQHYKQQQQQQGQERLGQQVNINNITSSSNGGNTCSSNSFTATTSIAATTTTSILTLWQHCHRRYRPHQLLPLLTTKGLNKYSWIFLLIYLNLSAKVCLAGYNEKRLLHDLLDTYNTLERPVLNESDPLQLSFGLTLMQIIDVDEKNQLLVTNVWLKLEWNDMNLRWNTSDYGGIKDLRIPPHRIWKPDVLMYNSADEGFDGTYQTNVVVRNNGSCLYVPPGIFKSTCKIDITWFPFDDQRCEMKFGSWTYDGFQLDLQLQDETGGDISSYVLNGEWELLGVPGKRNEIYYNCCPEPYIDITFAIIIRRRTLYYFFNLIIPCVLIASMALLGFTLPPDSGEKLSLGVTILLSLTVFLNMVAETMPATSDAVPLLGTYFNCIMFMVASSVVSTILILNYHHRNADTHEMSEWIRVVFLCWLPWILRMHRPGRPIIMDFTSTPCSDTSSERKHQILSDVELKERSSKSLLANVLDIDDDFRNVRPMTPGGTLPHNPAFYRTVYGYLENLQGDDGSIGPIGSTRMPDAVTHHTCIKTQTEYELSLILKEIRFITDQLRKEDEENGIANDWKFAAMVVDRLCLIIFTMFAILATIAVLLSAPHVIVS

[4] = Displacement of [3H]alpha-bungarotoxin from nAChR in honeybee head membrane after 60 min by scintillation counting; assay type: cell membranes, Apis mellifera

| SMILES | fold change (FC) (Musca domestica) | pKa [1] | IC50 (Acetylcholinesterase) [µM] | pKa [2] | Ki [3] [µM] | Ki [4] [µM] |
| --- | --- | --- | --- | --- | --- | --- |
| C1=C(c2cccnc2)NCC1 [DIHYDRONICOTYRINE] | 2.6 | 7.21 | 350 | 7.4 | 1.92 | 1.27 |
| CN(C)C1CSSC1 [NEREISTOXIN] |  |  |  |  | 187 | 254 |
| CCCN(CCC)Cc1cccnc1 | 0.16 | 8.13 | 1700 |  | 220 | 200 |
| O=[N+]([O-])/N=C1\NCCN1Cc1ccc(Cl)nc1 [IMIDACLOPRID] |  |  |  |  | 7.47 | 2.53 |
| O=c1cccc2n1C[C@@H]1CNC[C@H]2C1 [CYTISINICLINE] |  |  |  |  | 1.23 | 0.65 |
| COC(=O)C1=CCCN(C)C1 [ARECOLINE] |  |  |  |  | 516 | 240 |
| CCNCc1cccnc1 | 0.34 | 8.96 | 7100 |  | 380 | 289 |
| CN1[C@@H]2CC[C@H]1C[C@@H](OC(=O)C(CO)c1ccccc1)C2 (stereo not given in full) [ATROPINE] |  |  |  |  | 32.5 | 26.3 |
| CN1C(=O)CC[C@H]1c1cccnc1 [COTININE] | 0.03 |  |  | 4.5 | > 1000 | > 1000 |
| O=[N+]([O-])C(/C=N/c1ccccc1)=C1NCCN1 |  |  |  |  | > 500 | > 500 |
| c1cncc(C2CCCCN2)c1 (stereo not drawn) [DL-ANABASINE] |  |  | 3900 |  | 3.71 | 3.91 |
| CNC1(C)C2CCC(C2)C1(C)C (stereo not given) [MECAMYLAMINE] |  |  |  |  | > 1000 | 453 |
| COc1cc2c3cc1Oc1cc(ccc1O)C[C@@H]1c4c(cc(OC)c(O)c4Oc4ccc(cc4)C[C@@H]3N(C)CC2)CC[N+]1(C)C [TUBOCURARINE] |  |  |  |  | 1.88 | 3.57 |
| CN1[C@@H](CC(=O)c2ccccc2)CCC[C@H]1C[C@H](O)c1ccccc1 [LOBELINE] |  |  |  |  | 12.8 | 9.13 |
| CN1CCC[C@H]1c1cccnc1 (racemic) [NICOTINE] | 1 |  | 620 |  |  |  |
| CC(C)NCc1cccnc1 | 0.46 | 8.46 | 3900 |  | 226 | 103 |
| CN1CCC[C@H]1c1cccnc1 [NICOTINE] |  | 7.66 | 2600 | 7.9 | 2.48 | 1.48 |
| c1cncc(C2CCCCN2)c1 (racemic) [DL-ANABASINE] | 0.6 |  |  |  |  |  |
| C[N+](C)(C)CCCCCCCCCC[N+](C)(C)C [DECAMETHONIUM] |  |  |  |  | 103 | 224 |
| COc1nn(-c2ccc(C)cc2OC)c(=O)o1 |  |  |  |  | > 1000 | > 1000 |
| CCN(CC)Cc1ccccn1 | 0.1 | 8.42 | 3000 |  |  |  |
| CN(C)Cc1ccccn1 |  |  |  |  | > 1000 | > 1000 |
| c1cncc(CN2CCCCC2)c1 | 0.79 | 8.16 | 1500 |  | 67.6 | 48.7 |
| O=[N+]([O-])C=C1NCCN1 [2-(NITROMETHYLENE)IMIDAZOLIDINE] |  |  |  |  | > 1000 | > 1000 |
